We go through one molecule from patent publication US5244923A, “Use of 2-(phenoxypropanolamino) ethoxphenoxy-acetic acid and its derivatives to inhibit gastrointestinal motility” (Imperial Chemical Industries PLC, priority 1990, dated 1993).

Structures can show the parent of a compound that is named as a salt.

This test has as its target "atypical" β-adrenoceptors (Cavia porcellus, UniProt Q3HNP5). Nature of the test: Relaxation of histamine-contracted guinea-pig ileum. As to conditions: histamine 0.5 μM contraction, propranolol 5 μM, atropine 1 μM, phentolamine 3 μM present, read-out: EC30 (concentration of agonist producing a relaxation equivalent to 30% histamine inhibition).

Sequence of "atypical" β-adrenoceptors (Q3HNP5 1-379): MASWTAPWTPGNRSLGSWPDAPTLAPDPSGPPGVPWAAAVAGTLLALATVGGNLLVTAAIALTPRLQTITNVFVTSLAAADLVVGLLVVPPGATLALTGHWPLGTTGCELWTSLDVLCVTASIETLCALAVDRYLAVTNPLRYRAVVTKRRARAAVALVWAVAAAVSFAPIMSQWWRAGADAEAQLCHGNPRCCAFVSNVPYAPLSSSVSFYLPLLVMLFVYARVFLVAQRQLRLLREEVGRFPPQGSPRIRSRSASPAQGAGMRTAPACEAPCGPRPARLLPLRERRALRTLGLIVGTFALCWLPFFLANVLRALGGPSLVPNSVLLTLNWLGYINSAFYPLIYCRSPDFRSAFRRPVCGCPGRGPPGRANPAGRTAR

Consider `COCCNC(=O)COc1ccc(OCCNC[C@H](O)COc2ccccc2)cc1` [(S)-4-[2-(2-hydroxy-3-phenoxypropylamino)ethoxy]-N-(2-methoxyethyl)phenoxyacetamide hydrochloride], for which the EC30 stood at 940 ± 260 nM.
